According to publication PMC4857087, “A potential adjuvant chemotherapeutics, 18β-glycyrrhetinic acid, inhibits renal tubular epithelial cells apoptosis via enhancing BMP-7 epigenetically through targeting HDAC2” (Scientific Reports, 2016):

Columns and labels:
[1] = target: HDAC2 (Homo sapiens, UniProt Q92769); assay: SPR (Biacore T200, HDAC2 immobilized on CM5 chip, […] Langmuir fit); assay type: binding
[2] = system: HK2; assay: cells; set-up: species or system mTEC; antiproliferative activity on renal tubular epithelial cells, 48 h; conditions: Homo sapiens, HK-2, 48 h
Protocol: GA could be transformed into 18β-glycyrrhetinic acid (18βGA) via biotransformation. At first, compounds GA and 18βGA were evaluated for their antiproliferative activities against mTEC and HK2 cell lines. The cells were allowed to proliferate in the presence of tested material for 48 h, and the results were reported in terms of IC50 values (Supplementary Table S2). […] Thus we chose GA 0.05, 0.1, 0.2, 0.4, 0.8 mM and 18βGA 2.5, 5, 10, 20, 30 μM to further evaluate the roles on KIM-1. […] Thus, 18βGA was chosen to discuss the mechanisms in AKI induced by CP. Cisplatin (CP), glycyrrhizic acid ammonium salt (GA), 18β-glycyrrhetinic acid (18βGA), Dimethyl sulfoxide (DMSO), MTT (3-(4, 5-dimethylthiazol-2-yl)-2, 5-diphenyltetrazoliumbromide) and all other chemicals were obtained from Sigma-Aldrich (St. Louis, MO, USA). BMP-7, KIM-1, Bcl-2 and Bax antibodies were purchased from Santa Cruz (CA, USA). β-actin antibody and secondary antibodies for goat anti-rabbit IgG HRP and rabbit anti-goat IgG HRP were purchased from Bioworld Technology (Nanjing, China). Creatinine (Cr) and Blood Urea Nitrogen (BUN) assay kit were purchased from Siemens (NY, USA).

HDAC2, sequence (Q92769 whole entry): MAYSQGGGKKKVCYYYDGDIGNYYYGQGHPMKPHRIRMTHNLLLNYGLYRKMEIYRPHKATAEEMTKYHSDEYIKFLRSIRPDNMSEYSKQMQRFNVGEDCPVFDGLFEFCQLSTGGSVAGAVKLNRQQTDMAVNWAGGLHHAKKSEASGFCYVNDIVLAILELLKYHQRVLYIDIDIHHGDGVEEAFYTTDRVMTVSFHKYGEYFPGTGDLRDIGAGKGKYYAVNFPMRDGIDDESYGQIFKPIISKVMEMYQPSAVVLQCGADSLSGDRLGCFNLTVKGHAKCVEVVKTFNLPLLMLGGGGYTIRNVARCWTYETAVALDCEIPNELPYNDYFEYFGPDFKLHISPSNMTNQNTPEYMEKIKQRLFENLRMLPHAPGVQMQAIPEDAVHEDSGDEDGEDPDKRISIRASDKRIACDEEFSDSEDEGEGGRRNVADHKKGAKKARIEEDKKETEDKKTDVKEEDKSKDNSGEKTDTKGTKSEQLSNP

- Kd [1]: 0.613 µM
Compound: CC1(C)[C@@H](O)CC[C@]2(C)[C@H]3C(=O)C=C4[C@@H]5C[C@@](C)(C(=O)O)CC[C@]5(C)CC[C@@]4(C)[C@]3(C)CC[C@@H]12 [18βGA, 18β-glycyrrhetinic acid]
- IC50 [2]: 0.073 mM
